Measurements as given in patent publication US20040063680A1, “Method of treating stroke” (priority 2003, published 2004).

For CC(C)S(=O)(=O)NCC(C)(F)c1ccc(-c2ccc(CC#N)cc2)cc1 (stereo not shown) [Example 9, 2-{4-[4-(1-fluoro-1-methyl-2-{[(methylethyl)sulfonyl]amino}ethyl)phenyl]phenyl}ethanenitrile], the melting point was 155 to 157 °C.
